Measured values published in article PMC9106635, “Stimulation of the atypical chemokine receptor 3 (ACKR3) by a small-molecule agonist attenuates fibrosis in a preclinical liver but not lung injury model” (Cellular and Molecular Life Sciences: CMLS, 2022).

Key:
[1] = tested on: fibrosis-related genes (liver mRNA); assay: nCounter analysis of 52 fibrosis-related genes in liver RNA; format: in vivo, mouse
Protocol: Total RNA was prepared from snap-frozen liver tissue (the lateral and medial right lobes and the caudate lobe; Supplementary Figure S1a) or lung tissue (cranial right lobe; Supplementary Figure S1b) after homogenization on ice in TRIZol. For quantitative qRT-PCR, cDNA was made from 0.5 μg of RNA using the GoScript reverse transcription system (Promega) according to the manufacturer's protocol. QRT-PCR was performed (for 40 cycles) with the Quantstudio3 Applied Biosystems (ABI) system using Sybr green (ABI) followed by melting curve analysis. Expression was calculated using the delta threshold cycle (ΔCT) method with Gapdh as reference gene (previously validated as stable house-keeping gene in the CCl4 model and in the bleomycin model, current study, not shown). Forward (F) and reverse (R) primer sequences were (5'-3'): […]; Col1a1: [NT]; Ackr3: [NT]; Cxcr4: [NT]; Golm1: [NT]; Lgals3: [NT]; Unc93b1: [NT]; Slc15a3: [NT]; Sec24d: [NT]; Cxcl10: [NT]; and […] Data are expressed as mean ± sem. For NanoString nCounter (NanoString, USA) analysis on liver RNA, a custom-designed panel of 52 fibrosis-related probes was used (the Nanostring probe list is shown in Supplementary Table 1). 100-500 ng of total RNA was hybridized according to the manufacturer's instructions. Data were normalized by scaling to a panel of four housekeeping genes (i.e., Hprt1, Actb, Ldh, Tbp; probes are listed in Supplementary Table 1) with a coefficient of variation of < 5% between conditions used for comparison. The scaled counts were base log2-transformed and data were expressed as fold-change versus the reference condition (CCl4 + 23% HPBCD). […] The resulting P-values were corrected for multiple testing with Benjamini-Hochberg to control the false discovery rate. P < 0.05 was considered as significant.

[2] = Mouse plasma pharmacokinetics after subcutaneous administration; format: in vivo; settings: 30 mg/kg subcutaneous
Protocol: (§1) Pharmacokinetic analysis of plasma samples was performed at GVK BIO Sciences Pvt. Ltd. (Hyderabad, India). The pharmacokinetic properties of compound 18a were determined by subcutaneous administration in male C57BL/6 mice. A 30 mg/kg dose was formulated as a solution in 23% hydroxypropyl-beta-cyclodextrin (HPBCD; w/v) in water. The dose volume was 3 mL/kg. Serial blood samples were collected at 0.5, 1, 2, 4, 6, 8 and 24 h post dosing (n = 3). Plasma concentration of compound 18a was determined by a LC–MS/MS method. Chromatography was performed on a reverse phase column (Kinetex EVO, C18, 50 × 4.6 mm, 5 µ) at a flow rate of 1 mL/minute, using a gradient-elution method. Mobile Phase A was a 10 mM ammonium acetate solution with 0.1% formic acid in water, whereas mobile phase B was a mixture of acetonitrile and methanol (50:50). The gradient started at 5% B ramped up to 95% B over 1 min, held at 95% B for 1.2 min, and then ramped down to 5% B over 0.1 min, and held at 5% B for 1.2 min. The mass spectrometer was operated in positive-ionization mode and Telmisartan was used as internal standard. Analyst software was used for the data acquisition and chromatographic-peak integration. The Cmax, Tmax, AUC and half-life value (t1/2) were determined using standard non-compartmental pharmacokinetic methods. The concentration of compound 18a in liver and lung tissue was determined by LC–MS/MS at Eurofins (Vergeze, France). Tissues harvested at the endpoint of the efficacy study (day 28 for liver, day 21 for lung), 2 h post the last compound 18a dose, were processed. Around 250 mg of the lateral right liver lobe (n = 3) and ~ 120 mg of the caudal right lung lobe (n = 4) were homogenized in water and precipitated in acetonitrile containing Irbesartan as internal standard. Further analysis was performed via a similar method as described above. Data are expressed as mean ± sem.
Pharmacokinetic parameters were calculated from plasma concentration-time data in male C57BL/6 mice (n=3). Cmax is reported as the mean ± SD.

[3] = Compound concentration in liver and lung tissue homogenates (LC-MS/MS); format: in vivo, mouse; settings: mean ± sem
Protocol: as §1, with “Analyst software was used for the data acquisition and chromatographic-peak integration.” left out, “Tissues harvested at the endpoint of the efficacy study (day 28 for liver, day 21 for lung), 2 h post the last compound 18a dose, were processed. Around 250 mg of the lateral right liver lobe (n = 3) and ~ 120 mg of the caudal right lung lobe (n = 4) were homogenized in water and precipitated in acetonitrile containing Irbesartan as internal standard. Further analysis was performed via a similar method as described above.” left out

[4] = liver d28, CCl4 + compound 18a vs. CCl4 + 23% HPBCD
[5] = mouse, sc, male C57BL/6 mice, plasma

In the case of `CCc1ccn2ccnc2c1N1CCCN(C(CC(N)=O)C2CCN(C(=O)C3CC4CCC3O4)CC2)CC1` (centres unmarked) [compound 18a], the “number of the 52 fibrosis-related genes with significantly affected expression” value ([1]; CCl4-challenged livers, day 28) was 8, the “Fold change Adamts2 mRNA” value [1, 4] was 1.15 and the “Fold change Anxa3 mRNA” value [1, 4] was 0.85. For the same molecule, the “Fold change Arhgap25 mRNA” value [1, 4] was 0.87, the “Fold change Arl11 mRNA” value [1, 4] was 1.09 and the “Fold change Arpc1b mRNA” value [1, 4] was 1.04. For the same molecule, the “Fold change Axl mRNA” value [1, 4] was 0.96, the “Fold change C1qb mRNA” value [1, 4] was 0.92 and the “Fold change Capg mRNA” value [1, 4] was 0.85. The “Fold change Ccr2 mRNA” value [1, 4] was 0.96, the “Fold change Ccr5 mRNA” value [1, 4] was 0.86 and the “Fold change Ccr9 mRNA” value [1, 4] was 1.04. The “Fold change Cd68 mRNA” value [1, 4] was 0.90, the “Fold change Cd86 mRNA” value [1, 4] was 0.88 and the “Fold change Clec4n mRNA” value [1, 4] was 0.77. For the same molecule, the “Fold change Clec7a mRNA” value [1, 4] was 1.13, the “Fold change Col3a1 mRNA” value [1, 4] was 1.40 and the “Fold change Col4a2 mRNA” value [1, 4] was 0.92. For the same molecule, the “Fold change Col5a1 mRNA” value [1, 4] was 0.84, the “Fold change Cxcl10 mRNA” value [1, 4] was 0.74 and the “Fold change Cxcl16 mRNA” value [1, 4] was 1.03. For the same molecule, the “Fold change Eln mRNA” value [1, 4] was 1.25, the “Fold change Enc1 mRNA” value [1, 4] was 1.09 and the “Fold change Fxyd5 mRNA” value [1, 4] was 0.96. For the same molecule, the “Fold change Gdf15 mRNA” value [1, 4] was 1.12, the “Fold change Golm1 mRNA” value [1, 4] was 1.46 and the “Fold change Il1rn mRNA” value [1, 4] was 0.76. For the same molecule, the “Fold change Laptm5 mRNA” value [1, 4] was 0.90, the “Fold change Lgals3 mRNA” value [1, 4] was 0.58 and the “Fold change Lilrb4 mRNA” value [1, 4] was 0.94. For the same molecule, the “Fold change Lox mRNA” value [1, 4] was 1.24, the “Fold change Loxl2 mRNA” value [1, 4] was 1.01 and the “Fold change Ly86 mRNA” value [1, 4] was 1.15. For the same molecule, the “Fold change Mmp9 mRNA” value [1, 4] was 1.13, the “Fold change Ms4a6a mRNA” value [1, 4] was 1.20 and the “Fold change Myo1f mRNA” value [1, 4] was 0.90. The “Fold change Nckap1l mRNA” value [1, 4] was 0.97, the “Fold change Pld4 mRNA” value [1, 4] was 0.93 and the “Fold change Plod2 mRNA” value [1, 4] was 1.13. The “Fold change Rassf4 mRNA” value [1, 4] was 0.93, the “Fold change Sdcbp mRNA” value [1, 4] was 1.08 and the “Fold change Sec24d mRNA” value [1, 4] was 1.22. The “Fold change Serpine1 mRNA” value [1, 4] was 0.22, the “Fold change Sla mRNA” value [1, 4] was 1.00 and the “Fold change Slc11a1 mRNA” value [1, 4] was 0.88. The “Fold change Slc15a3 mRNA” value [1, 4] was 0.81, the “Fold change Tgfb1 mRNA” value [1, 4] was 0.90 and the “Fold change Thbs2 mRNA” value [1, 4] was 1.03. For the same molecule, the “Fold change Timp1 mRNA” value [1, 4] was 1.09, the “Fold change Tnc mRNA” value [1, 4] was 0.84 and the “Fold change Trem2 mRNA” value [1, 4] was 1.44. For the same molecule, the “Fold change Unc93b1 mRNA” value [1, 4] was 0.81, the “time after administration for which plasma levels exceeded the target value (5.2 ng/mL)” value ([2]; below target at 24 h) was “up to 8 h” and the AUC [2, 5] was 6700 ng·h/mL. It also gave a Tmax [2, 5] of 0.25 h, a half-life [2, 5] of 5.2 h and a Cmax ([2]; mouse, sc, male C57BL/6 mice, plasma, mean ± SD, n=3) of 6120 ng/mL. For the same molecule, the “concentration in lung tissue” value ([3]; day 21, 2 h after last subcutaneous dose (15 mg/kg BID), n=4) was 1703 ± 54 ng/g tissue and the “concentration in liver tissue” value ([3]; day 28, 2 h after last subcutaneous dose (15 mg/kg BID), n=3) was 2528 ± 511 ng/g tissue.
